Results published in patent US20100204205A1 (priority 2007, published 2010).
Entries after “also recorded” stand apart in the source; their conditions may differ.

Key:
[1] = Example 1: tolerability study of mirtazapine and betahistine; assay type: in vivo, normal, health subjects; settings: 6 weeks of therapy, healthy subjects
Method: The subjects receive 2 capsules per day, one in the morning and one at bedtime. […] In a different dosage range, the subjects receive 3 capsules per day, one in the morning, one at noon and one at bedtime. […] In a different dosage range, the subjects receive 2 capsules per day, one in the morning and one at bedtime. […] All medications are administered in an over-encapsulated format that ensures blinding of study participants, staff and investigators. All subjects are scheduled to receive a total of 6 weeks of therapy, and are required to return to the clinics after 1, 2, 4 and 6 weeks of therapy. Patients are required to complete paper self-assessments, electronic diary assessments, computer based cognitive testing, as well as vital signs and weight assessments at the clinic visits.

[2] = administered IP or IV; cited from earlier work
[3] = in vivo; cited from earlier work
5HT1B receptors = 5HT1B receptors (Homo sapiens, UniProt P28222); settings: cited from earlier work
Sequence of 5HT1B receptors (P28222 whole entry): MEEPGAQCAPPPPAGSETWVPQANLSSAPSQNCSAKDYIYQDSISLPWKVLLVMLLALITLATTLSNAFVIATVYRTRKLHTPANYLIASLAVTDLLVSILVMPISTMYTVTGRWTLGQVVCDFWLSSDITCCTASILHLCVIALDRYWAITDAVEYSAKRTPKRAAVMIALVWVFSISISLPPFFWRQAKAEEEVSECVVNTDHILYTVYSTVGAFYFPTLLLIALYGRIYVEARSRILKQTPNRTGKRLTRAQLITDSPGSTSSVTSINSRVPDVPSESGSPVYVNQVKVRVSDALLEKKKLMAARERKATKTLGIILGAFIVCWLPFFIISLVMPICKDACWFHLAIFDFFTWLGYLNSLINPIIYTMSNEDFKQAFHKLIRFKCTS

5HT3 serotonin receptors = target: T1, 5HT3 serotonin receptors (Homo sapiens, UniProt P46098); settings: cited from earlier work
T1 sequence (P46098 24-478): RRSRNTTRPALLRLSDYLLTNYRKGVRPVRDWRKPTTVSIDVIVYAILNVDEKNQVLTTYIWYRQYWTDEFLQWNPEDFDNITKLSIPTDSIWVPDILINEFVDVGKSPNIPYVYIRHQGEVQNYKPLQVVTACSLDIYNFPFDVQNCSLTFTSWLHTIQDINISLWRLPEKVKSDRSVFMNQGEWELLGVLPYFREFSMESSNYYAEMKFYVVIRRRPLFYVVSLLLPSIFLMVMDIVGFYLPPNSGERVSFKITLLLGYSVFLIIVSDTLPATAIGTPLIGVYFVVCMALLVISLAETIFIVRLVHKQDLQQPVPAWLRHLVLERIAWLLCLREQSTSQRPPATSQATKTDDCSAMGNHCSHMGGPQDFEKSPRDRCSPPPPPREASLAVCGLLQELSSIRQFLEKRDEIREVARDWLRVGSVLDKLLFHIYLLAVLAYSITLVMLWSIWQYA

[4] = target: T2, 5HT2C serotonin receptors (Homo sapiens, UniProt P28335); settings: cited from earlier work
T2 sequence (P28335 33-458): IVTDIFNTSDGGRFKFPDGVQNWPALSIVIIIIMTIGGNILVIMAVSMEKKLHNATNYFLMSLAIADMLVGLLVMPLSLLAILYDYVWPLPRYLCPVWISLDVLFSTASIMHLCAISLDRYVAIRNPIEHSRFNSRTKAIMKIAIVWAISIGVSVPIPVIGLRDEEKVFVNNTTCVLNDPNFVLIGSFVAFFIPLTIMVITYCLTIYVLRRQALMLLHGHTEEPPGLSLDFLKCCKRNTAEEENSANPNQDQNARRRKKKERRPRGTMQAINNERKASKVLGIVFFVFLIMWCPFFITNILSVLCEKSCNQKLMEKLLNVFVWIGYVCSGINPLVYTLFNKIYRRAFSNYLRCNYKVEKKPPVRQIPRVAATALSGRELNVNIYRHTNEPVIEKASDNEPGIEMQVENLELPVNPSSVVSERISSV

5HT1A receptors = target: T3, 5HT1A receptors (Homo sapiens, UniProt P08908); settings: cited from earlier work
T3 sequence (P08908 1-422): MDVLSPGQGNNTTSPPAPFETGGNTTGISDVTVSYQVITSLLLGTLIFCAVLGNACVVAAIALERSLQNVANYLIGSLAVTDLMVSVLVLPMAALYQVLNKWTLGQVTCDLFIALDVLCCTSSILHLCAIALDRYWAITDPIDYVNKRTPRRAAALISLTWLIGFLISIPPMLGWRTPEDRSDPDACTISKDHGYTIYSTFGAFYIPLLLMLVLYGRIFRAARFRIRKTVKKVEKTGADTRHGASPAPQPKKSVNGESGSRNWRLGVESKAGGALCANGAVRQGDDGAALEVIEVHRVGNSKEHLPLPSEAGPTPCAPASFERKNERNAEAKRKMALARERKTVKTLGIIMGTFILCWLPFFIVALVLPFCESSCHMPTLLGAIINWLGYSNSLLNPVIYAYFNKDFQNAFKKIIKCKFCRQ

histamine H1 receptors = histamine H1 receptors (Homo sapiens, UniProt P35367); settings: cited from earlier work
Sequence of histamine H1 receptors (P35367 whole entry): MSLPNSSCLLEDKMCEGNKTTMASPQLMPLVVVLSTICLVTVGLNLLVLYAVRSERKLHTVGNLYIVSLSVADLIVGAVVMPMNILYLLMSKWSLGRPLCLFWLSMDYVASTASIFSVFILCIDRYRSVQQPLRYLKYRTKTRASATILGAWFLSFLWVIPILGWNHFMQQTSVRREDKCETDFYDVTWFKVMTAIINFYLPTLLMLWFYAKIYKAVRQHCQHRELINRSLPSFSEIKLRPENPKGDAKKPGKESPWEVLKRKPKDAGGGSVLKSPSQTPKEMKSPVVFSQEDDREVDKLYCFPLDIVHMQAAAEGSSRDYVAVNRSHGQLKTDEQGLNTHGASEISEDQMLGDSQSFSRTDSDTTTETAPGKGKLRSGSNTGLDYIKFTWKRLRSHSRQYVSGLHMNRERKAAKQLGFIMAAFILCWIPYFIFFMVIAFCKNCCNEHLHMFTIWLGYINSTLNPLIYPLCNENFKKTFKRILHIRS

5HT2 receptors = settings: cited from earlier work
norepinephrine reuptake = norepinephrine reuptake (Homo sapiens, UniProt P23975); settings: cited from earlier work
Sequence of norepinephrine reuptake (P23975 whole entry): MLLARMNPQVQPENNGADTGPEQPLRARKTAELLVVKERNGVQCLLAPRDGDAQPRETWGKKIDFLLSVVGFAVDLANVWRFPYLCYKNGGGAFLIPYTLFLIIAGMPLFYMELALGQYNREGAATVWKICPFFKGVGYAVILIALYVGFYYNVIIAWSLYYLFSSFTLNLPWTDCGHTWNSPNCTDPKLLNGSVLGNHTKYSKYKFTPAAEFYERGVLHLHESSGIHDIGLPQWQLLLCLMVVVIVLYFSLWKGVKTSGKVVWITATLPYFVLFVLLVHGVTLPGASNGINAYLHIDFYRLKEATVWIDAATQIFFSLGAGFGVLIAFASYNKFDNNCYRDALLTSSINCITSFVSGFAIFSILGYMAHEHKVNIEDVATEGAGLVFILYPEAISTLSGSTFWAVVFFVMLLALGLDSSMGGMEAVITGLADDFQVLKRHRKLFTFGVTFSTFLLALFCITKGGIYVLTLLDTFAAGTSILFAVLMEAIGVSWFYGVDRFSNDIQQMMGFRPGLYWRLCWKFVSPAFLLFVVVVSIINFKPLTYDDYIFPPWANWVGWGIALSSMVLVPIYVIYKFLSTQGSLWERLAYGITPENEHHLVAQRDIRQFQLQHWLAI

alpha-2 receptors = settings: cited from earlier work
[5] = target: 5HT2A serotonin receptors (Homo sapiens, UniProt P28223); settings: cited from earlier work
Sequence of 5HT2A serotonin receptors (P28223 whole entry): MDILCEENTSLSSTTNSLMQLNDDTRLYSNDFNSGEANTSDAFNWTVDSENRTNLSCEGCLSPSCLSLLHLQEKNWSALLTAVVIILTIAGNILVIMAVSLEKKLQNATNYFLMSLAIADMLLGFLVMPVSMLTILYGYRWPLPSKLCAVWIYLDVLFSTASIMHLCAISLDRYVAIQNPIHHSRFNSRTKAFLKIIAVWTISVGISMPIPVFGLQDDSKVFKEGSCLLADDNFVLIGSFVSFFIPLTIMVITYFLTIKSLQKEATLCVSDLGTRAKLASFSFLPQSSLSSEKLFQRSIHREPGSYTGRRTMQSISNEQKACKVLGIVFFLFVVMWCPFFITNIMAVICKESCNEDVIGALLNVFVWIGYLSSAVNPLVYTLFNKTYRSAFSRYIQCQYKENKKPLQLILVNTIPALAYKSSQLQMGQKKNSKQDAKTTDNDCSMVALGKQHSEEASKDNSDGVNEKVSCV

[6] = test system: muscarinic cholinergic receptors; settings: cited from earlier work
[7] = test system: alpha-1 adrenergic receptors; settings: cited from earlier work
reuptake of dopamine = reuptake of dopamine (Homo sapiens, UniProt Q01959); settings: cited from earlier work
Sequence of reuptake of dopamine (Q01959 whole entry): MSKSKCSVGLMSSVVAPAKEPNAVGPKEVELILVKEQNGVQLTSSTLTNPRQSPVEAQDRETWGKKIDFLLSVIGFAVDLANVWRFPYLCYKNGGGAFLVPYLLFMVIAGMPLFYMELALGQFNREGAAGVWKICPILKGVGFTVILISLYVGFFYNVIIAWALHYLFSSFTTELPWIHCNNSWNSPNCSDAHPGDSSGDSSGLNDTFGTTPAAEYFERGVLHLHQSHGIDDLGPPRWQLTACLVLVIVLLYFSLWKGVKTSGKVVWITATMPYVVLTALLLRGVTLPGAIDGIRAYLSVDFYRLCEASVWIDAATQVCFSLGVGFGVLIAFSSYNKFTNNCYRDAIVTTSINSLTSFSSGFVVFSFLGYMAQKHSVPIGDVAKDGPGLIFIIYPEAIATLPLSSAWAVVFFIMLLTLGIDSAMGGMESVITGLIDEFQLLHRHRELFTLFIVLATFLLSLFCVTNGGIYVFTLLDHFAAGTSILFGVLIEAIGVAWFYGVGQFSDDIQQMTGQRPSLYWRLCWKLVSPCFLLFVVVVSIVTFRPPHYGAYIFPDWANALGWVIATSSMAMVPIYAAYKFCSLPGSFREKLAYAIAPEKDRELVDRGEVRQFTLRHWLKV

reuptake of 5HT = reuptake of 5HT (Homo sapiens, UniProt P31645); settings: cited from earlier work
Sequence of reuptake of 5HT (P31645 whole entry): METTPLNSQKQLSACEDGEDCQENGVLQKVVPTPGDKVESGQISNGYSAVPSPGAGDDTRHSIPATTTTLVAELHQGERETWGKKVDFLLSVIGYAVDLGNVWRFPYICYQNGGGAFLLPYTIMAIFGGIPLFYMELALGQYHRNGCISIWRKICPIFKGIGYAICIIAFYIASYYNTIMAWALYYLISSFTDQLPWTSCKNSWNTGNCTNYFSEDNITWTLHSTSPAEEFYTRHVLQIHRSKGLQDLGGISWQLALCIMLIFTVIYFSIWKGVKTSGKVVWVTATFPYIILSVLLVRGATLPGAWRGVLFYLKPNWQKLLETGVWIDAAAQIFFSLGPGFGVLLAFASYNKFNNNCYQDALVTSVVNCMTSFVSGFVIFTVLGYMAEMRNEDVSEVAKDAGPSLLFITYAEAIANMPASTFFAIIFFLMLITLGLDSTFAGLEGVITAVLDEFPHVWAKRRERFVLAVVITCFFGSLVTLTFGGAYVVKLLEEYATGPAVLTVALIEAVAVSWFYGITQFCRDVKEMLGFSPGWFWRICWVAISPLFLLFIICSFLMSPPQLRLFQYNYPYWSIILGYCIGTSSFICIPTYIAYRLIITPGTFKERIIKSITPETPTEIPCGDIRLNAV

[8] = controlled studies; cited from earlier work

CNCCc1ccccn1 [betahistine, 2-[2-(methylamino)ethyl]pyridine]
side effects [1]: causes insomnia, nausea/vomiting, and weight loss | food intake [2]: marginally inhibit food intake | satiety signaling [2]: increase the satiety signaling | blood-brain barrier passage [3]: crosses the blood-brain barrier

CN1CCN2c3ncccc3Cc3ccccc3C2C1 (centres unmarked) [mirtazapine, 1,2,3,4,10,14b-hexahydro-2-methylpyrazino[2,1-a]pyrido[2,3-c]benzazepine]
affinity for the 5HT1B receptors (5HT1B receptors): lacks significant affinity | antagonist activity at 5HT3 serotonin receptors (5HT3 serotonin receptors): potent antagonist | antagonist activity at 5HT2C serotonin receptors [4]: potent antagonist | affinity for the 5HT1A receptors (5HT1A receptors): lacks significant affinity | antagonist activity at histamine H1 receptors (histamine H1 receptors): potent antagonist | antagonist activity at 5HT2 receptors (5HT2 receptors): potent antagonist | side effects [1]: does cause weight gain, sedation, and cognitive deficits | inhibition of norepinephrine reuptake (norepinephrine reuptake): very weak inhibitor | antagonist activity at central alpha-2 receptors (alpha-2 receptors): potent antagonist | antagonist activity at 5HT2A serotonin receptors [5]: potent antagonist | antagonist activity at muscarinic cholinergic receptors [6]: moderate antagonist; also recorded: weak antagonist | antagonist activity at alpha-1 adrenergic receptors [7]: moderate; also recorded: weak antagonist | effect on the reuptake of dopamine (reuptake of dopamine): no effect | effect on the reuptake of 5HT (reuptake of 5HT): no effect

CN(C)CCC=C1c2ccccc2CCc2ccccc21 [amitriptyline]
appetite increase reported, share of patients [8]: 6% | weight gain of greater than or equal to 7% of body weight, share of patients [8]: 5.9%
